Reference: patent US12540118B2, “Dendrene amide compound, bactericide and use thereof” (Jiangsu Flag Chemical Industry Co., Ltd., priority 2020, dated 2026)

What was measured:
succinate dehydrogenase = molecular target: T1, succinate dehydrogenase (Sus scrofa, UniProt A5GZW8+D0VWV4+Q007T0); assay: Enzyme activity assay, succinate dehydrogenase (DCIP reduction); assay type: biochemical, porcine; conditions: read-out: Inhibitors (10 μM, SQR)
T1 construct: isolated from porcine hearts; from tissue; host or cells: porcine heart
Experimental: The inhibitory activities of control agents and target compounds on succinate dehydrogenase are determined.
The enzyme used in this test example is succinate dehydrogenase, which is isolated from porcine hearts.
The test method comprises the following steps: The total volume of the system is 1.8 ml, and the system contained 100 mM Na2HPO4—NaH2PO4 buffer (pH=7.4), 0.3 mM EDTA, 20 mM sodium succinate, 53 μM DCIP (2,6-dichloroindophenol sodium), and 2 nM succinate dehydrogenase. Thermostatic waterbath at 23° C. and magnetic stirring at 600 rpm. The decrease in the light absorption of the substrate DCIP is monitored at a wavelength of 600 nm and experimental points in a linear range are collected. Control substrate consumption not more than 5% of the experimental points. The molar extinction coefficient of DCIP is 21 mM^−1 cm^−1. And calculating the reduction yield of the DCIP in the reaction time, fitting a linear slope, and deducting the baseline slope to obtain the initial reaction speed.

Sphaerotheca fuliginea = Sphaerotheca fuliginea potting method; assay type: in vivo; conditions: Podosphaera fuliginea; 100 mg/L; read-out: Sphaerotheca fuliginea control rating
Experimental: The fungicidal activity of the control agents and target compounds are determined. The test and investigation method refers to SOP-SC-1101 sphaerotheca fuliginea potting method in disinfectant rolls written by KANGZHUO and GUBAOGEN in “Standard operation specification for testing biological activity of pesticides”.

Erysiphe graminis = Erysiphe graminis potting method; assay type: in vivo; conditions: Blumeria graminis; 100 mg/L; read-out: Erysiphe graminis control rating
Experimental: The fungicidal activity of the control agents and target compounds are determined. The test and investigation method refers to SOP-SC-1116 Erysiphe graminis potting method in disinfectant rolls written by KANGZHUO and GUBAOGEN in “Standard operation specification for testing biological activity of pesticides”.

T1 sequence (Q0QF01 43-664 partner): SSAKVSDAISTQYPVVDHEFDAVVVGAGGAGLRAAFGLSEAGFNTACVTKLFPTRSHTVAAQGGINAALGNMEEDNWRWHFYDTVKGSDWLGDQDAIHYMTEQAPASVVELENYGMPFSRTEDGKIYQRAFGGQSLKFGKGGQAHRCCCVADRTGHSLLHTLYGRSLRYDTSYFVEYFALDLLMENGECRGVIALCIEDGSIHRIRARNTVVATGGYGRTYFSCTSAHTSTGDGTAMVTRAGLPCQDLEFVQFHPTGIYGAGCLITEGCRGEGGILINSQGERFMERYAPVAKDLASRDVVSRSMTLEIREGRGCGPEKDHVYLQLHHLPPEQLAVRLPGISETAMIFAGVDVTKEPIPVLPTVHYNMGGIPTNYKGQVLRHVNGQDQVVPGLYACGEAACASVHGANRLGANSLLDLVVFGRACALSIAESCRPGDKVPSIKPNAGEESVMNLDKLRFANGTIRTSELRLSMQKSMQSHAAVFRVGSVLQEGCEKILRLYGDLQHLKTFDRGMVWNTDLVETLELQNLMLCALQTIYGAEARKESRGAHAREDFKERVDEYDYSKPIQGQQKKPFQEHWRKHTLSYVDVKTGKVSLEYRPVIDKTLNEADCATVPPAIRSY
T1 sequence (Q007T0 29-280): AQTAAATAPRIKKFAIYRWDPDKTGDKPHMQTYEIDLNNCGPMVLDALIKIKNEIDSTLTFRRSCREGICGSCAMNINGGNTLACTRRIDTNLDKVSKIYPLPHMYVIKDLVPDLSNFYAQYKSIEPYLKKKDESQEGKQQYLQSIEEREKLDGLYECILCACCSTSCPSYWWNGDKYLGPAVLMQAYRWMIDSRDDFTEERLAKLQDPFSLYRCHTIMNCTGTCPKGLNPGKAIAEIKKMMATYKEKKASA
T1 sequence (D0VWV4 30-169): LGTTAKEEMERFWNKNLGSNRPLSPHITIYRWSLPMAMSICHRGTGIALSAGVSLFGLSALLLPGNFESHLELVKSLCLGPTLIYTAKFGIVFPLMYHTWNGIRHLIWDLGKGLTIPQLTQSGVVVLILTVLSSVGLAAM
T1 sequence (A5GZW8 57-159 limits assumed): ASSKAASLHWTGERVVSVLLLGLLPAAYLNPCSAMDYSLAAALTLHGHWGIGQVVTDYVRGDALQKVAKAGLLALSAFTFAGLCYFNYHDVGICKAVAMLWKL

SMILES	inhibition at 10 µM (succinate dehydrogenase) [%]	pest or weed control at 100 µg/mL (Sphaerotheca fuliginea) [%]	pest or weed control at 100 µg/mL (Erysiphe graminis) [%]
C=C(CN(C(=O)c1c(C(F)F)nn(C)c1F)C1CC1)c1ccc(C(C)C)cc1C [Compound 41]	> 90	80 to 100	80 to 100
C=C(CN(C(=O)c1c(C(F)F)nn(C)c1F)C1CC1)c1ccc(Cl)cc1F [Compound 42]	> 90	80 to 100	80 to 100
C=C(CN(C(=O)c1c(C(F)F)nn(C)c1F)C1CC1)c1ccc(F)cc1Cl [Compound 43]	> 90	80 to 100	80 to 100
C=C(CN(C(=O)c1c(C(F)F)nn(C)c1F)C1CC1)c1cc(Cl)ccc1F [Compound 44]	> 90	80 to 100	80 to 100
C=C(CN(C(=O)c1c(C(F)F)nn(C)c1F)C1CC1)c1cc(C(F)(F)F)ccc1Cl [Compound 45]	> 90	80 to 100	80 to 100
C=C(CN(C(=O)c1c(C(F)F)nn(C)c1F)C1CC1)c1cccc(C(F)(F)F)c1Cl [Compound 46]	> 90	80 to 100	80 to 100
C=C(CN(C(=O)c1c(C(F)F)nn(C)c1F)C1CC1)c1ccc(C(F)(F)F)cc1Cl [Compound 47]	> 90	80 to 100	80 to 100
C=C(CN(C(=O)c1c(C(F)F)nn(C)c1F)C1CC1)c1ccc(S(C)(=O)=O)cc1Cl [Compound 48]	> 90	80 to 100	80 to 100
C=C(CN(C(=O)c1c(C(F)F)nn(C)c1F)C1CC1)c1cccc(S(C)(=O)=O)c1 [Compound 49]	> 90	80 to 100	80 to 100
C=C(CN(C(=O)c1c(C(F)F)nn(C)c1F)C1CC1)c1ccccc1S(C)(=O)=O [Compound 50]	> 90	80 to 100	80 to 100
C=C(CN(C(=O)c1c(C(F)F)nn(C)c1F)C1CC1)c1cc(S(C)(=O)=O)ccc1Cl [Compound 51]	> 90	80 to 100	80 to 100
C=C(CN(C(=O)c1c(C(F)F)nn(C)c1F)C1CC1)c1ccc(S(=O)(=O)CC)cc1 [Compound 52]	> 90	80 to 100	80 to 100
C=C(CN(C(=O)c1c(C(F)F)nn(C)c1F)C1CC1)c1cccc(S(=O)(=O)CC)c1 [Compound 53]	> 90	70 to 80	80 to 100
C=C(c1cccc(F)c1)C(C)N(C(=O)c1c(C(F)F)nn(C)c1F)C1CC1 (stereo not drawn) [Compound 56]	> 90	80 to 100	80 to 100
C=C(c1cccc(Cl)c1)C(C)N(C(=O)c1c(C(F)F)nn(C)c1F)C1CC1 (stereo not drawn) [Compound 57]	> 90	80 to 100	80 to 100
C=C(c1ccccc1F)C(C)N(C(=O)c1c(C(F)F)nn(C)c1F)C1CC1 (stereo not drawn) [Compound 58]	> 90	80 to 100	80 to 100
C=C(c1ccc(Cl)cc1)C(C)N(C(=O)c1c(C(F)F)nn(C)c1F)C1CC1 (stereo not drawn) [Compound 59]	> 90	80 to 100	80 to 100
C=C(c1ccc(C)cc1)C(C)N(C(=O)c1c(C(F)F)nn(C)c1F)C1CC1 (stereo not drawn) [Compound 60]	> 90	80 to 100	80 to 100
C=C(c1ccc(OC)cc1)C(C)N(C(=O)c1c(C(F)F)nn(C)c1F)C1CC1 (stereo not drawn) [Compound 61]	> 90	80 to 100	80 to 100
C=C(c1ccc(F)c(F)c1)C(C)N(C(=O)c1c(C(F)F)nn(C)c1F)C1CC1 (stereo not drawn) [Compound 62]	> 90	80 to 100	80 to 100
C=C(c1cc(F)cc(F)c1)C(C)N(C(=O)c1c(C(F)F)nn(C)c1F)C1CC1 (stereo not drawn) [Compound 63]	> 90	80 to 100	80 to 100
